One test has as its target T1, Wis1 kinase (Schizosaccharomyces pombe, UniProt P33886).
T1 construct: The genes wis1 and spc1 were cloned into the pRep1 vector containing nmt1 promoter; made in house; host or cells: Schizosaccharomyces pombe KGY246 (pRep1 vector, nmt1 promoter)
T1 sequence (P33886 1-605): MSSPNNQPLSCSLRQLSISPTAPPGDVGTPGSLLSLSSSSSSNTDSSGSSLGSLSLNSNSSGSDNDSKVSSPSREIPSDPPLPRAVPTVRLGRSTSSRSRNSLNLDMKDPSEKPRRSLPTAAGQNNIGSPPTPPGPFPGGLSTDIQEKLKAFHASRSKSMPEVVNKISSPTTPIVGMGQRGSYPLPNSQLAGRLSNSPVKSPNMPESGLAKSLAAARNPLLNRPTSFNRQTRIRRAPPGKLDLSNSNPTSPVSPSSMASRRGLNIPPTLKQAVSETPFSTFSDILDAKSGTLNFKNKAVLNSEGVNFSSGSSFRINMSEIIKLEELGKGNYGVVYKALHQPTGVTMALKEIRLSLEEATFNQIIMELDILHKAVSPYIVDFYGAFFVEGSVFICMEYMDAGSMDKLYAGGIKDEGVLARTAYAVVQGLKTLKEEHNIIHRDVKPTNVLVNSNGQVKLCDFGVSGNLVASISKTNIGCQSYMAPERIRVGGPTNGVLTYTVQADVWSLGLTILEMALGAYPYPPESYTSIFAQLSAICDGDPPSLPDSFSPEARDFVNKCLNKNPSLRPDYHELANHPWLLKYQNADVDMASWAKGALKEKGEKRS
The test can be described thus: Wis1 kinase activity and autophosphorylation ([γ-32P]ATP, SDS-PAGE, FIG. 2). The format is biochemical. The following applies: purified GST-Wis1, kinase reaction 30° C. 30 minutes, autophosphorylation also measured. As to the method:
The genes wis1 and spc1 were cloned into the pRep1 vector containing nmt1 promoter of which expression was inhibited by thiamin in the medium and able to tag GST. The KGY246 cells, wild type Schizosaccharomyces pombe cells were transformed with this plasmid. The expression of Wis1 and Spc1 kinase tagged with GST was induced by the cultivation of the transformed cells in MM^AU medium containing 0.4 mM thiamin followed by cultivation to exponential phase(5×10^6 cells) for about 20 hours in 100 mL of MM^AU medium in which thiamin was withdrawn. After osmotic shock(0.6M KCl) and oxidative stress were given to the cells expressing Wis1 and Spc1 tagged with GST for 25 minutes, cells were recovered at 4° C., washed with ice-cold PBS/NaF(50 mM)/NaN3(1 mM) buffer and HB buffer(25 mM HEPES, pH 7.5, 60 mM β-glycerophosphate, 15 mM EGTA, 0.1 mM Na vanadate, 0.1% triton and hydrolyzed using glass bead and bead beater purchased from Sigma. The supernatant of hydrolyzed cells was incubated with 100 mM NaCl for salting-out to remove unnecessary proteins. After the supernatant was incubated with 0.045 g/ml GST beads for 1.5 hours, proteins not bound to GST beads were removed. Purified Wis1 and Spc1 kinases were separated on 7% SDS-PAGE and the degree of purification was confirmed by western blotting using GST antibody.
Before Wis1 and Spc1 kinases purified in example 4 were analyzed, they were pre-incubated in analyzing buffer of kinase (50 mM Tris-Cl pH7.4, 20 mM MgCl2, 5 mM EGTA, 2 mM Na vanadate, 1 mM DTT). The kinase reaction was performed at 30° C. for 30 minutes in the presence of 1 mg/ml myelin basic protein(MBP), 1 mM ATP and 20 uCi of [γ-^32p]ATP and then terminated by adding SDS sample buffer and heating at 90° C. for 5 minutes. The reaction mixtures were separated on SDS-polyacrylamide gel electrophoresis. After fixation with 10% acetic acid: 10% methanol and drying, the gel was exposed on X-ray film. When Wis1 is activated by stimulus, it also activates autophosphorylation. Therefore, the degree of Wis1 autophosphorylation was also measured.

Another test concerns the target T2, Spc1 kinase (Schizosaccharomyces pombe, UniProt Q09892).
T2 construct: The genes wis1 and spc1 were cloned into the pRep1 vector containing nmt1 promoter; made in house; host or cells: Schizosaccharomyces pombe KGY246 (pRep1 vector, nmt1 promoter)
T2 sequence (Q09892 1-349): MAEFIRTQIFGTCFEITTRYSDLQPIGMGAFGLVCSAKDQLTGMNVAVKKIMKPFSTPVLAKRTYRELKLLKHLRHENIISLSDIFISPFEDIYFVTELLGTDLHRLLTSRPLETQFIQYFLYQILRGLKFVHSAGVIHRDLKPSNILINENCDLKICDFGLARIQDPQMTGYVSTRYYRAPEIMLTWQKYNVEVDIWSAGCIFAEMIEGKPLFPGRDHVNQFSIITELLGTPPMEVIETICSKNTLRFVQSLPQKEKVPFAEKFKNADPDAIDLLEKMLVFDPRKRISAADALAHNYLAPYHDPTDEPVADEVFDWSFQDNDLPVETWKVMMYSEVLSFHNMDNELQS
The test can be described thus: Spc1 kinase activity, myelin basic protein substrate ([γ-32P]ATP, SDS-PAGE, FIG. 3). The format is biochemical. Conditions: purified GST-Spc1, myelin basic protein as substrate. As to the method: The genes wis1 and spc1 were cloned into the pRep1 vector containing nmt1 promoter of which expression was inhibited by thiamin in the medium and able to tag GST. The KGY246 cells, wild type Schizosaccharomyces pombe cells were transformed with this plasmid. The expression of Wis1 and Spc1 kinase tagged with GST was induced by the cultivation of the transformed cells in MM^AU medium containing 0.4 mM thiamin followed by cultivation to exponential phase(5×10^6 cells) for about 20 hours in 100 mL of MM^AU medium in which thiamin was withdrawn. […]
Before Wis1 and Spc1 kinases purified in example 4 were analyzed, they were pre-incubated in analyzing buffer of kinase (50 mM Tris-Cl pH7.4, 20 mM MgCl2, 5 mM EGTA, 2 mM Na vanadate, 1 mM DTT). […] Therefore, the degree of Wis1 autophosphorylation was also measured.

For the next test, the system named is KGY246 (wild type). The test can be described thus: Growth (cell number) of wild type strain KGY246. The format is cell-based, Schizosaccharomyces pombe. As to the method: To investigate the effect of protoberberine derivatives on the growth of cells, the cells of each strain were cultured in rich medium YE^AU to exponential phase(5×10^7 cells/mL). These cells were transferred to YE^AU medium and cultured for 12 hours. Then cell number was measured every 3 hours.

From patent US20040029910A1, “Protoberberine derivatives which inhibit activity of the mitogen-activated protein kinase” (priority 2000, published 2004) come the findings set out here.

SMILES strings stand for the structures.

As to `COc1ccc2c(Cc3ccc(C(C)(C)C)cc3)c3[n+](cc2c1OC)CCc1cc2c(cc1-3)OCO2.[Cl-]` [13-(4-t-butylbenzyl)berberine chloride], the “inhibition of Wis1 kinase activity (in words)” value against Wis1 kinase is recorded as “directly inhibited”.
Take `CCCOc1cc2c(cc1OCCC)-c1cc3ccc(OCCC)c(OCCC)c3c[n+]1CC2.[I-]` [2,3,9,10-tetrapropoxyprotoberberine iodide]: the “inhibition of Spc1 kinase activity (in words)” value against Spc1 kinase is “directly inhibited”.
On to `COc1ccc2c(Cc3ccc(O[Si](C)(C)C(C)(C)C)cc3)c3[n+](cc2c1OC)CCc1cc2c(cc1-3)OCO2.[Cl-]` [13-(4-(t-butyldimethylsilyloxy)benzyl)berberine chloride], for which the cell number with KGY246 (wild type) (Table 2, KGY246, time 14) is 20; with KGY246 (wild type) (Table 2, KGY246, time 17) it was 19; with KGY246 (wild type) (Table 2, KGY246, time 20), 22; in the test with KGY246 (wild type) (Table 2, KGY246, time 23), 16. In addition, the “inhibition of Wis1 kinase activity (in words)” value on Wis1 kinase was “directly inhibited”.
